In ChEMBL document CHEMBL5724796, “Tm Shift (DSF) assay results for EUbOPEN Chemogenomics Library” (2024):
Non-standard residues stand in square brackets, D forms with d. Residues, ends and D or L forms follow the SMILES beside them. *: point of attachment. Nle = CCCC[C@H](N)C(=O)O; Cbz = O=C(OCc1ccccc1)*; CH2F = FC*

Tests used:
[1] = target: Fibroblast growth factor receptor 2 (Homo sapiens) (UniProt P21802); details: Compound concentration 20.0 uM
Description: Thermal Shift Assay. Domain: start/stop: T457-E768

[2] = target: T1, Peregrin (Homo sapiens) (UniProt P55201); details: Compound concentration 20.0 uM
T1 sequence (whole entry): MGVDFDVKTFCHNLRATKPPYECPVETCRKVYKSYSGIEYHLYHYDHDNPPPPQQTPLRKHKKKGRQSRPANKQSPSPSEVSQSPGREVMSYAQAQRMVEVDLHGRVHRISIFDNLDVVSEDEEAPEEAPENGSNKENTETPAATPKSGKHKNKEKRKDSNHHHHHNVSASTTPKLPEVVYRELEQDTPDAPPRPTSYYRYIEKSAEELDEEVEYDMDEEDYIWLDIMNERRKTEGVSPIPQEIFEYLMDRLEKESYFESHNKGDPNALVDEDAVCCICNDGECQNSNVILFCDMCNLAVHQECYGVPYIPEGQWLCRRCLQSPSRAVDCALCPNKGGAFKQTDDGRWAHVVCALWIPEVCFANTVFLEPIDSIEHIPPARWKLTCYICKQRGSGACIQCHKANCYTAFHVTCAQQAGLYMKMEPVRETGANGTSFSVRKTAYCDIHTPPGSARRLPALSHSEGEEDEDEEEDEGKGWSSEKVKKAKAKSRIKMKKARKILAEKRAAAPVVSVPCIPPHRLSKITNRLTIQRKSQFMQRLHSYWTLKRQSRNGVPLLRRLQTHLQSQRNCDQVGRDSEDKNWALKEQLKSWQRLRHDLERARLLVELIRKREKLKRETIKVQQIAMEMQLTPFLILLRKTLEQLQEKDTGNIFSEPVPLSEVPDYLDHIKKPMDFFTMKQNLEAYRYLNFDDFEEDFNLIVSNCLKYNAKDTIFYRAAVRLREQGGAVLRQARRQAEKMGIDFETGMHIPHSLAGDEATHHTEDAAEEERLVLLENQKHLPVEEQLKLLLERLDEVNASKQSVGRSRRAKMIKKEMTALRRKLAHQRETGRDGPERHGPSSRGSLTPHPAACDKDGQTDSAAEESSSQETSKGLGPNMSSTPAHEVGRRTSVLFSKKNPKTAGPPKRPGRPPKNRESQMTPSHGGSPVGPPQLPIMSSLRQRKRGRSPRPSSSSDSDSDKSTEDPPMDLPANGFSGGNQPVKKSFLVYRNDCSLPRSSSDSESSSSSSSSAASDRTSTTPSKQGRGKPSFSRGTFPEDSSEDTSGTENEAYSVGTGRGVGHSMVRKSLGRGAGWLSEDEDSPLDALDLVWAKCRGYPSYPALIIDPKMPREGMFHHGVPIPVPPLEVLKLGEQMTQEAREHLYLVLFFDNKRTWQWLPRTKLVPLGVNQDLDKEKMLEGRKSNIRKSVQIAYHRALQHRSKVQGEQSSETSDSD

Chain of Fibroblast growth factor receptor 2 (Homo sapiens) (P21802 22-821 limits assumed): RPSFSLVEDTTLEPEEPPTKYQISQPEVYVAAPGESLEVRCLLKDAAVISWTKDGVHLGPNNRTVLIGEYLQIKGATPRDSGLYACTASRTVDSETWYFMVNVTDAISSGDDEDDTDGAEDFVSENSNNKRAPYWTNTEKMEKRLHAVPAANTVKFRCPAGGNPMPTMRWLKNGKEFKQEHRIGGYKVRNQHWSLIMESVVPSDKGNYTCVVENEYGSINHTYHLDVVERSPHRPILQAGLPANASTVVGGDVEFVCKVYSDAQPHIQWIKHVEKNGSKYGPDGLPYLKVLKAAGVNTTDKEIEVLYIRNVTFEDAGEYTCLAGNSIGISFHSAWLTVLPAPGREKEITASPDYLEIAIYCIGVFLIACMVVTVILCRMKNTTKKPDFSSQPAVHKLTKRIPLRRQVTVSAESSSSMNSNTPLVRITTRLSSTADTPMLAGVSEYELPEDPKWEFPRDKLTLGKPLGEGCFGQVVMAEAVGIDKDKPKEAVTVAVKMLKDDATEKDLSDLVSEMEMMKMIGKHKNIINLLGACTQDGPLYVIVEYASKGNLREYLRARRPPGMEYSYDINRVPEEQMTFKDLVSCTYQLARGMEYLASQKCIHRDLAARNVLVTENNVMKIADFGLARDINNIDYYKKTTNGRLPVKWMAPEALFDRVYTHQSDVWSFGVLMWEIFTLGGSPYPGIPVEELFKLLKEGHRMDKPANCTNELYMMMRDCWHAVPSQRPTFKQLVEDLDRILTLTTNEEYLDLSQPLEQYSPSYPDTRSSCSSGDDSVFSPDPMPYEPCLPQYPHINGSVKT

SMILES	ΔTm [1]	ΔTm [2]
Cn1c(=O)cc(N2CCC[C@@H](N)C2)n(Cc2cc(F)ccc2C#N)c1=O	0.72 °C	0.76 °C
O=C1COc2c(cccc2[C@@H](O)CNCCN(C(=O)CCNCCc2ccc(Cl)c(Cl)c2)C2CCCCC2)N1	0.36 °C	-1.84 °C
O=C(NCCCCc1ccccc1)n1c(=O)oc2cc(-c3ccc(F)cc3)ccc21	-0.32 °C	2.4 °C
O=C(N1CCCC[C@H]1Cc1ccccc1)n1cc(-c2ccc(-c3ccccc3)cc2)nn1	0.8 °C	1 °C
COCCOc1cc(CC2CCN(CCc3ccc4c(c3)C(=O)CCO4)CC2)ccc1Br	-0.65 °C	1.8 °C
O=C(N1CCCC[C@@H]1Cc1ccccc1)n1cc(-c2ccc(-c3ccccc3)cc2)nn1	0 °C	0.6 °C
N[C@](CCCCB(O)O)(CCN1CCCCC1)C(=O)O	0.8 °C	2.66 °C
Cn1c(=O)c2c(nc(N3CCNCC3)n2Cc2nnc(-c3ccc(Cl)c(Cl)c3)o2)n(C)c1=O	0.08 °C	-0.83 °C
CC(C)c1ccc(-c2cc(=O)c3ccccc3o2)cc1	-0.13 °C	-0.32 °C
OC[C@H]1O[C@@H](c2ccc(Cl)c(Cc3ccc(O[C@H]4CCOC4)cc3)c2)[C@H](O)[C@@H](O)[C@@H]1O	-0.41 °C	1.01 °C
Cc1noc2c1-c1ccccc1C(c1ccc(Cl)cc1)=N[C@H]2CC(N)=O	-0.03 °C	2.09 °C
CN(CCC(Oc1ccc(-c2ccccc2)cc1)c1ccc(F)cc1)CC(=O)O (stereo not given)	0.44 °C	1.93 °C
CC(C)=C[C@H]1C[C@H](C)[C@]2(CC[C@]3(C)C[C@H]4[C@H](C(=O)C[C@@]4(C)O)/C(C=O)=C\C[C@H]32)O1	0.16 °C	-0.47 °C
CC[C@H](C)[C@H](NC(=O)[C@H](CCC(=O)O)NC(=O)[C@@H](NC(C)=O)C(C)C)C(=O)N[C@H](C=O)CC(=O)O (Ac-VEID-aldehyde)	-0.3 °C	-1.43 °C
Nc1c[nH]c(=O)c2cc(-c3ccccc3)sc12	0.44 °C	-1.11 °C
Cc1ccnc(NS(=O)(=O)c2ccc(NC(=O)Nc3ccc(S(=O)(=O)Nc4nccc(C)n4)cc3)cc2)n1	-0.47 °C	0.27 °C
COC(=O)CC[C@H](NC(=O)[C@H](C)NC(=O)OCc1ccccc1)C(=O)N[C@H](C(=O)N[C@@H](CC(=O)OC)C(=O)CF)C(C)C (Cbz-AE(OMe)VD(OMe)-CH2F)	0.54 °C	-0.82 °C
CC(C)NC(=O)c1ccc(OC(F)F)c(OCC2CC2)c1	0.29 °C	0.69 °C
CSCC[C@H](NC(=O)[C@H](CC(=O)O)NC(C)=O)C(=O)N[C@@H](CCC(N)=O)C(=O)N[C@H](C=O)CC(=O)O (Ac-DMQD-aldehyde)	0.77 °C	-1.78 °C
O=c1c2nnc(C3CCOCC3)n2cc(Br)n1CC1CCCC1	-0.26 °C	-0.41 °C

SMILES	ΔTm [1]	ΔTm [2]
Cn1cc(-c2ccncc2)c(-c2ccc(OCc3ccc4ccccc4n3)cc2)n1	0.48 °C	0.25 °C
Nc1ccccc1NC(=O)c1ccc(CNc2nccc(-c3cccnc3)n2)cc1	1.02 °C	-0.72 °C
N#Cc1ccc(-c2c3n(c4cccnc24)CCN(C2CC2)C3=O)cc1F	-0.59 °C	-0.31 °C
Cc1ncsc1-c1ccc([C@H](C)NC(=O)[C@@H]2C[C@@H](O)CN2C(=O)[C@@H](NC(=O)COCCCOCCNC(=O)C[C@@H]2N=C(c3ccc(Cl)cc3)c3c(sc(C)c3C)-n3c(C)nnc32)C(C)(C)C)cc1	-0.49 °C	-1.73 °C
CS(=O)(=O)c1ccc(Oc2cc(F)cc(C#N)c2)c2c1[C@H](O)[C@H](F)[C@@H]2F	0.61 °C	2.16 °C
N#Cc1cc(F)cc(Oc2ccc3c(c2C(F)F)[C@@H](O)C(F)(F)S3(=O)=O)c1	-0.59 °C	2.23 °C
O=C(N1CCCCC1c1ccccc1)n1cc(-c2ccc(-c3cccc(CO)c3)cc2)nn1 (stereo not given)	-4.93 °C	-1.91 °C
N=C(N)SCc1ccc(CN2C(=O)C(=O)c3cc(Br)cc(Br)c32)cc1	-6.45 °C	-6.38 °C
O=C(c1cc(O)c(O)c([N+](=O)[O-])c1)c1ccccc1F	-0.06 °C	1.4 °C
O=C(Cc1ccccc1)c1cc(O)c(O)c([N+](=O)[O-])c1	0.57 °C	0.33 °C
COc1ccc(N(C(=O)Oc2c(C)cccc2C)c2ccnc(Nc3ccc(N4CCN(C)CC4)cc3)n2)c(OC)c1	4.44 °C	-1.1 °C
CC1=NN(c2ccc(C(=O)O)cc2)C(=O)/C1=C/c1ccc(-c2cc(C)c(C)cc2[N+](=O)[O-])o1	0.86 °C	-1.58 °C
O=C(c1cc(Cl)c(O)c(Cl)c1)N1CS(=O)(=O)c2ccccc21	0.39 °C	1.35 °C
CCCC[C@@H](C=O)NC(=O)[C@H](CC(C)C)NC(=O)[C@H](CC(C)C)NC(C)=O (Ac-Leu-Leu-[Nle]-aldehyde)	0.84 °C	-1.4 °C
CCc1ccccc1NC(=O)CSC(=O)NNC(=O)[C@H](Cc1c[nH]c2ccccc12)NC(=O)OC(C)(C)C	-9.39 °C	-6.08 °C
O=C(O)CCNC(=S)NCCCC[C@H](NS(=O)(=O)c1cccc(F)c1)C(=O)N[C@@H](Cc1c[nH]c2ccccc12)C(=O)NC1CCC1	-0.15 °C	1.86 °C
CC(C)(C)OC(=O)Nc1ccc(-c2cc(C(=O)NCCCCCCC(=O)NO)no2)cc1	-3.33 °C	0 °C
O=C(NCc1ccc(F)cc1)C1CCN(S(=O)(=O)c2cc(Cl)cc(Cl)c2)CC1	0.75 °C	2.64 °C
OC1CN=C2c3ccn([C@@H]4O[C@H]([C@H](O)c5ccc(Cl)cc5)[C@@H](O)[C@H]4O)c3N=CN21 (stereo not given in full)	0.52 °C	-0.74 °C
NC(=O)C1CCCc2c1[nH]c1ccc(Cl)cc21 (stereo not given)	0.23 °C	2.61 °C

SMILES	ΔTm [1]	ΔTm [2]
Cc1cc2cc(NS(=O)(=O)c3ccc(C#N)cc3)ccc2n(C)c1=O	0.4 °C	8.89 °C
COc1c(CN)cc(CN)cc1OCCCN1Cc2ccccc2C1	0.36 °C	0.41 °C
CCCSc1nc2c(c(=O)n1-c1ccccc1)SCC2	0.36 °C	0.27 °C
O=C1C(=O)N(Cc2ccccc2)c2ccc(S(=O)(=O)N3CCC[C@H]3COc3ccc(C(F)(F)F)cc3)cc21	1.01 °C	-2.14 °C
Nc1nc2cc(CC[C@H]3C[C@@H](n4ccc5c(N)ncnc54)[C@H](O)[C@@H]3O)ccc2cc1Br	-5.18 °C	-0.14 °C
COc1ccc(C2C(C#N)=C(N)OC3=C2C(=O)CC(c2cccc4ccccc24)C3)cc1 (stereo not given)	-0.92 °C	0.11 °C
O=C(NO)c1cnc(NC2(c3ccccc3)CC2)nc1	0.35 °C	-1.33 °C
Cc1cc(C(=O)N2CCN(C3CN(C(=O)c4ccc(-c5ccccc5)cc4)C3)CC2)no1	1.38 °C	-1.49 °C
O=C1Nc2ccccc2C2(CCN(CC(Cc3ccccc3)Nc3nc4ccc(F)cc4s3)CC2)N1 (stereo not given)	2.21 °C	0.27 °C
CC(=O)N[C@H](C(=O)N[C@@H](CC(=O)O)C(=O)N[C@H](C(=O)N[C@@H](C)C(=O)N[C@H](C=O)CC(=O)O)C(C)C)C(C)C (Ac-VDVAD-aldehyde)	-0.83 °C	-0.92 °C
NC(=O)c1cc(F)cc2c1C(=O)N(C1CCN(C3CCC(F)(F)CC3)CC1)C2	-0.03 °C	-0.15 °C
N[C@@H](CCCCB(O)O)C(=O)O	0.29 °C	0.2 °C
Cc1ccc2[nH]c(-n3nc(C)c(Cc4ccccc4)c3O)nc2c1	-0.11 °C	0.31 °C
COc1cc(O)cc(CN2CCc3c(cc(Cn4ccn(C)c4=N)cc3-c3ccc(F)cc3C)C2=O)c1	-1.31 °C	-1.15 °C
C[C@]12O[C@H](C[C@]1(O)CO)n1c3ccccc3c3c4c(c5c6ccccc6n2c5c31)CNC4=O	5.19 °C	-0.7 °C
O=C(Nc1ccc2[nH]nc(-c3ccncc3)c2c1)[C@@H]1CCN(CC(=O)N2CCN(c3ccc(-c4ncccn4)cc3)CC2)C1	0.95 °C	-0.34 °C
CCCn1/c(=N/C(=O)c2cccc(C(N)=O)c2)[nH]c2ccccc21	0.22 °C	-1.26 °C
COc1nc(Nc2cc(S(C)(=O)=O)ccc2N[C@@H](c2cccc3c2OC(F)(F)O3)c2ncccc2Cl)nc(N2CCNCC2)n1	-8.88 °C	0 °C
N#C[C@@H]1CCCN1C(=O)[C@@H]1CCCN1C(=O)CCCc1ccccc1	0.84 °C	-1.55 °C
Cn1nc2c(=O)n(CC3(O)CCN(C(=O)C[C@H](c4ccccc4)C(F)(F)F)CC3)cnc2c1-c1ccc(CN)cc1	-0.7 °C	1.89 °C
